In the test the target is T1, human Chemokine like receptor 1 (Homo sapiens, UniProt Q99788).
T1 construct: host or cells: U2OS (Tango CMKLR1-bla U2OS)
T1 sequence (Q99788 1-373): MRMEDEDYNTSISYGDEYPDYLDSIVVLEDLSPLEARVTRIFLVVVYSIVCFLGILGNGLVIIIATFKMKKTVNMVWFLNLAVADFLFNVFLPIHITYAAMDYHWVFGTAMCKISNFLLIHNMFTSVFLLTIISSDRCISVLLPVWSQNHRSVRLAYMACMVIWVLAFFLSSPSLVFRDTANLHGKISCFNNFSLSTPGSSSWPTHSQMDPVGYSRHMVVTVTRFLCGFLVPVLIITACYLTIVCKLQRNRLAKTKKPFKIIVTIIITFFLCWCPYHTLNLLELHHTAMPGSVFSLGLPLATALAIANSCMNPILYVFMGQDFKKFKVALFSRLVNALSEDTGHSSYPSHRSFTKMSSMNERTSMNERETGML
Kind of test: Activation of Tango CMKLR1-bla U2OS cells (beta-lactamase FRET reporter). The format is cell-based. How it is done: The polypeptide sequences described above are the polypeptide sequences disclosed in the patent JP2010-229093A of BANYU PHARMA CO LTD: (D-Tyr)-Phe-Leu-Pro-(D-Ser)-Gln-Phe-(D-Ala)-Tic-Ser was used as a positive control (SEQ ID NO: 102).
The activation of the compound on Tango™ CMKLR1-bla U2OS cells (Invitrogen Cat. nos. K1551) was tested.
The activation of each compound in the above experiments on Tango™ CMKLR1-bla U2OS cells was determined as follows:
Day 1: Cell Seeding on Plate
2. The medium was removed, and the cells were washed with DPBS twice, followed by addition of 3 mL of 0.05% trypsin, and placed in a 37° C., 5% CO2 incubator (Thermo Fisher, Waltham, Massachusetts, USA) for 3-5 minutes. After the cells were rounded, 3-5 mL of medium (medium formula: DMEM 90%, Dialyzed FBS 10%, NEAA 0.1 mM, HEPES (pH 7.3) 25 mM, Penicillin 100 U/mL, Streptomycin 100 μg/mL) was added to terminate digestion.
2. The digested cells were transferred to a 15 mL centrifuge tube (430790, Corning), centrifuged at 1000 rpm for 5 minutes (5810R, Eppendorf, Hamburg, Germany), and the supernatant was discarded.
3. 7 mL of medium (DMEM+10% FBS) was added, blowed into a single cell suspension, counted by a cell counter, and adjusted the cell suspension to a desired cell density of 250,000/mL with the medium.
4. The cell suspension was seeded into a 384-well cell plate (Corning 3712) in 40 μL/well to make the number of cells 10000 cells/well, and 32 μL of medium was added to the blank control.
5. The incubation was performed overnight at 37° C. under 5% CO2.
Day 2: Dosing and Testing
1. Preparation of 200× Compound Plate
1.1 The test compound was formulated into a 10 mM working solution in DMSO.
1.2 45 μL of 10 mM test compound was added to the 2nd column of rows A to P in the Echo-384 well plate. The compound was subjected to a 3-fold dilution with Precision (30 μL of DMSO was added to the 3rd to 11th columns; 15 μL of the drug solution was pipetted from the 2nd column to the 3rd column, blown and evenly mixed; then 15 μL of the drug solution was pipetted from the 3rd column to the 4th column, blown and evenly mixed; the drugs was subjected to a 3-fold dilution to obtain 10 concentrations in total). The 1st and 12th columns of the Echo-384 well plate were supplemented with 30 μL of DMSO.
2. Preparation of Intermediate Plate
500 nL, i.e., 0.5 μL of the diluted compound (or DMSO) in the 200× compound plate was transferred into the corresponding position of V-bottom 384-well plate with Echo. 20 μL of medium was added to each well, centrifuged, shaken and evenly mixed. The concentration of the drugs in each well of the 2nd to 11th column of intermediate plate (i.e., 5× compound plate) were shown in following Table 4.
3.1 The cell plate was taken out from the incubator and observed under a microscope. The diluted compound or DMSO in the intermediate plate was added to the cell plate in 10 μL/well in the corresponding cell plate, and 40 μL of medium was pre-filled in each well.
3.2 The cells were incubated at 37° C. under 5% CO2 for 4 hours.
4.1 1 mM CCF4-AM, solution B, Solution C, and Solution D were used to prepare an appropriate amount of 6× detection solution. The LiveBLAzer™-FRET B/G Loading kit (K1095, Thermo Fisher, Waltham, Massachusetts, USA) kit containing CCF-4AM and solutionB, solutionC, and solutionD was also purchased from invitrogen (K1157, Thermo Fisher, Waltham, Massachusetts, USA).
4.2 The cells were observed under a microscope and the cell plate was equilibrated to room temperature.
4.3 6 μL of CCF-4AM dissolved solution A, 60 μL of solution B, 904 μL of solution C and 30 μL of solution D were pipetted in an EP tube, blown, and evenly mixed to obtain a 6× detection solution. The prepared 6× detection solution was pipetted to a 384-well plate in 10 μL/well.

Where [1] appears, read: determination by the method of Effect Embodiment 1, read-out: EC50.

Molecules are shown by their SMILES. Like-named read-outs stand apart in the source and are kept apart here. Numbered stars: 1 amine (or outer) side, 2 acyl side, 3 side chain; on linkers, the order of the positions; unused ones are H or OH. Square brackets hold non-standard residues; d marks the D form. Peptide text beside a SMILES is read from it. * marks the point of attachment. X11 = O=C([C@@H](Cc1ccc(O)cc1)N(CCCc1ccccc1)[*:1])[*:2]; X7 = O=C([C@@H](Cc1ccc(O)cc1)NC(=S)NCCc1ccccc1)*; Phenylacetyl(4-Ph) = O=C(Cc1ccc(-c2ccccc2)cc1)*; Diphenylacetyl = O=C(C(c1ccccc1)c1ccccc1)*; Benzoyl(3,5-(OH)2) = O=C(c1cc(O)cc(O)c1)*; Pentanoyl(5-Ph) = O=C(CCCCc1ccccc1)*; Butanoyl(4-Ph) = O=C(CCCc1ccccc1)*; Hydrocinnamoyl = O=C(CCc1ccccc1)*; Tic = O=C(O)[C@@H]1Cc2ccccc2CN1; NHPhenethyl = c1ccc(CCN*)cc1; Pip = O=C(O)[C@@H]1CCCCN1; CO = O=C([*:1])[*:2]

Broadly, the EC50 is the concentration that produces a half-maximal response. As to `CC(C)C[C@H](NC(=O)[C@H](Cc1ccccc1)NC(=O)[C@@H](Cc1ccc(O)cc1)NC(=O)CCc1ccccc1)C(=O)N1CCC[C@H]1C(=O)N[C@H](CO)C(=O)N[C@@H](CCC(N)=O)C(=O)N[C@@H](Cc1ccccc1)C(=O)N[C@H](C)C(=O)N1Cc2ccccc2C[C@H]1C(=O)N[C@@H](CO)C(=O)O` [YW-71, 3-phenylpropanoyl-(D-Tyr)-Phe-Leu-Pro-(D-Ser)-Gln-Phe-(D-Ala)-Tic-Ser-OH] (Hydrocinnamoyl-[dY]FLP[dS]QF[dA][Tic]S-OH), the half-maximal effective concentration (EC50) under setting [1] is 31 nM.

In the case of `CC(C)C[C@H](NC(=O)[C@H](Cc1ccccc1)NC(=O)[C@@H](Cc1ccc(O)cc1)NC(=O)NCCc1ccccc1)C(=O)N1CCC[C@H]1C(=O)N[C@H](CO)C(=O)N[C@@H](CCC(N)=O)C(=O)N[C@@H](Cc1ccccc1)C(=O)N[C@H](C)C(=O)N1Cc2ccccc2C[C@H]1C(=O)N[C@@H](CO)C(=O)O` [YW-72, Phenethylcarbamoyl-(D-Tyr)-Phe-Leu-Pro-(D-Ser)-Gln-Phe-(D-Ala)-Tic-Ser-OH] ({NHPhenethyl-CO}-[dY]FLP[dS]QF[dA][Tic]S-OH), under setting [1], the EC50 was found to be 45 nM.

In the case of `CC(C)C[C@H](NC(=O)[C@H](Cc1ccccc1)NC(=O)[C@@H](Cc1ccc(O)cc1)NC(=S)NCCc1ccccc1)C(=O)N1CCC[C@H]1C(=O)N[C@H](CO)C(=O)N[C@@H](CCC(N)=O)C(=O)N[C@@H](Cc1ccccc1)C(=O)N[C@H](C)C(=O)N1Cc2ccccc2C[C@H]1C(=O)N[C@@H](CO)C(=O)O` [YW-73, Phenethylcarbamothioyl-(D-Tyr)-Phe-Leu-Pro-(D-Ser)-Gln-Phe-(D-Ala)-Tic-Ser-OH] (X7-FLP[dS]QF[dA][Tic]S-OH), under setting [1], the concentration for a half-maximal effect (EC50) came to 28 nM.

Regarding `CC(C)C[C@H](NC(=O)[C@H](Cc1ccccc1)NC(=O)[C@@H](Cc1ccc(O)cc1)NCCCc1ccccc1)C(=O)N1CCC[C@H]1C(=O)N[C@H](CO)C(=O)N[C@@H](CCC(N)=O)C(=O)N[C@@H](Cc1ccccc1)C(=O)N[C@H](C)C(=O)N1Cc2ccccc2C[C@H]1C(=O)N[C@@H](CO)C(=O)O` [YW-74, 3-Phenylpropyl-(D-Tyr)-Phe-Leu-Pro-(D-Ser)-Gln-Phe-(D-Ala)-Tic-Ser-OH] (H-[X11]FLP[dS]QF[dA][Tic]S-OH), the EC50 under setting [1] was 6.2 nM.

For the compound `CC(C)C[C@H](NC(=O)[C@H](Cc1ccccc1)NC(=O)[C@@H](Cc1ccc(O)cc1)NC(=O)CCCc1ccccc1)C(=O)N1CCC[C@H]1C(=O)N[C@H](CO)C(=O)N[C@@H](CCC(N)=O)C(=O)N[C@@H](Cc1ccccc1)C(=O)N[C@H](C)C(=O)N1Cc2ccccc2C[C@H]1C(=O)N[C@@H](CO)C(=O)O` [YW-75, 4-Phenylbutanoyl-(D-Tyr)-Phe-Leu-Pro-(D-Ser)-Gln-Phe-(D-Ala)-Tic-Ser-OH] ({Butanoyl(4-Ph)}-[dY]FLP[dS]QF[dA][Tic]S-OH), under setting [1], the EC50 is 50 nM.

For `CC(C)C[C@H](NC(=O)[C@H](Cc1ccccc1)NC(=O)[C@@H](Cc1ccc(O)cc1)NC(=O)CCCCc1ccccc1)C(=O)N1CCC[C@H]1C(=O)N[C@H](CO)C(=O)N[C@@H](CCC(N)=O)C(=O)N[C@@H](Cc1ccccc1)C(=O)N[C@H](C)C(=O)N1Cc2ccccc2C[C@H]1C(=O)N[C@@H](CO)C(=O)O` [YW-76, 5-phenylvaleroyl-(D-Tyr)-Phe-Leu-Pro-(D-Ser)-Gln-Phe-(D-Ala)-Tic-Ser-OH] ({Pentanoyl(5-Ph)}-[dY]FLP[dS]QF[dA][Tic]S-OH), the EC50 under setting [1] turned out to be 43 nM.

`CC(C)C[C@H](NC(=O)[C@H](Cc1ccccc1)NC(=O)[C@@H](Cc1ccc(O)cc1)NC(=O)Cc1ccc(-c2ccccc2)cc1)C(=O)N1CCC[C@H]1C(=O)N[C@H](CO)C(=O)N[C@@H](CCC(N)=O)C(=O)N[C@@H](Cc1ccccc1)C(=O)N[C@H](C)C(=O)N1Cc2ccccc2C[C@H]1C(=O)N[C@@H](CO)C(=O)O` [YW-77, 4-biphenylacetyl-(D-Tyr)-Phe-Leu-Pro-(D-Ser)-Gln-Phe-(D-Ala)-Tic-Ser-OH] ({Phenylacetyl(4-Ph)}-[dY]FLP[dS]QF[dA][Tic]S-OH): the EC50 came to 53 nM.

With `CC(C)C[C@H](NC(=O)[C@H](Cc1ccccc1)NC(=O)[C@@H](Cc1ccc(O)cc1)NC(=O)C(c1ccccc1)c1ccccc1)C(=O)N1CCC[C@H]1C(=O)N[C@H](CO)C(=O)N[C@@H](CCC(N)=O)C(=O)N[C@@H](Cc1ccccc1)C(=O)N[C@H](C)C(=O)N1Cc2ccccc2C[C@H]1C(=O)N[C@@H](CO)C(=O)O` [YW-78, diphenylacetyl-(D-Tyr)-Phe-Leu-Pro-(D-Ser)-Gln-Phe-(D-Ala)-Tic-Ser-OH] (Diphenylacetyl-[dY]FLP[dS]QF[dA][Tic]S-OH), the EC50 was determined as 26 nM.

With `CC(C)C[C@H](NC(=O)[C@H](Cc1ccccc1)NC(=O)[C@@H](Cc1ccc(O)cc1)NC(=O)c1cc(O)cc(O)c1)C(=O)N1CCC[C@H]1C(=O)N[C@H](CO)C(=O)N[C@@H](CCC(N)=O)C(=O)N[C@@H](Cc1ccccc1)C(=O)N[C@H](C)C(=O)N1Cc2ccccc2C[C@H]1C(=O)N[C@@H](CO)C(=O)O` [YW-79, 3,5-dihydroxybenzoyl-(D-Tyr)-Phe-Leu-Pro-(D-Ser)-Gln-Phe-(D-Ala)-Tic-Ser-OH] ({Benzoyl(3,5-(OH)2)}-[dY]FLP[dS]QF[dA][Tic]S-OH), the concentration giving a half-maximal response (EC50) under setting [1] worked out at 4.7 nM.

With `CC(C)C[C@H](NC(=O)[C@H](Cc1ccccc1)NC(=O)[C@H](N)Cc1ccc(O)cc1)C(=O)N1CCC[C@H]1C(=O)N[C@H](CO)C(=O)N[C@@H](CCC(N)=O)C(=O)N[C@@H](Cc1ccccc1)C(=O)N[C@H](C)C(=O)N1CCCC[C@H]1C(=O)N[C@@H](CO)C(=O)O` [YW-90, (D-Tyr)-Phe-Leu-Pro-(D-Ser)-Gln-Phe-(D-Ala)-HoPro-Ser-OH] (H-[dY]FLP[dS]QF[dA][Pip]S-OH), under setting [1], the EC50 is over 50000 nM.

On to `CC(C)C[C@H](NC(=O)[C@H](Cc1ccccc1)NC(=O)[C@H](N)Cc1ccc(O)cc1)C(=O)N1CCCC[C@H]1C(=O)N[C@H](CO)C(=O)N[C@@H](CCC(N)=O)C(=O)N[C@@H](Cc1ccccc1)C(=O)N[C@H](C)C(=O)N1Cc2ccccc2C[C@H]1C(=O)N[C@@H](CO)C(=O)O` [YW-96, (D-Tyr)-Phe-Leu-(S-Pip)-(D-Ser)-Gln-Phe-(D-Ala)-Tic-Ser] (H-[dY]FL[Pip][dS]QF[dA][Tic]S-OH; N-terminus assumed), for which the concentration for a half-maximal effect (EC50) stood at 39 nM.

`CC(C)C[C@H](NC(=O)[C@H](Cc1ccccc1)NC(=O)[C@H](N)Cc1ccccc1)C(=O)N1CCC[C@H]1C(=O)N[C@H](CO)C(=O)N[C@@H](CCC(N)=O)C(=O)N[C@@H](Cc1ccccc1)C(=O)N[C@H](C)C(=O)N1Cc2ccccc2C[C@H]1C(=O)N[C@@H](CO)C(=O)O` [YW-97, (D-Phe)-Phe-Leu-Pro-(D-Ser)-Gln-Phe-(D-Ala)-Tic-Ser-OH] (H-[dF]FLP[dS]QF[dA][Tic]S-OH): the EC50 under setting [1] worked out at 50 nM.

The values above are taken from patent US12129312B2, “Peptide compound, application thereof and composition containing same” (priority 2017, dated 2024).
